Source: patent US20190030114A1, “ISOFORM-SPECIFIC CALPAIN INHIBITORS, METHODS OF IDENTIFICATION, AND USES THEREOF” (WESTERN UNIVERSITY OF HEALTH SCIENCES, priority 2014, published 2019)
Entries after “also recorded” stand apart in the source; their conditions may differ. Read-outs that look alike come from different tables or passages of the source. Residues, ends and D or L forms follow the SMILES beside them. *: point of attachment. Cbz = O=C(OCc1ccccc1)*; CH2F = FC*

Key:
[1] = tested on: cultured cortical neurons; assay: Bic- and 4-AP-induced neuroprotection against starvation, Hoechst staining; format: cell-based; conditions: mCalp-I 200 nM
Description: Neuronal death was observed and quantified by Hoechst staining. 300-500 neurons were counted for each group in three to 6 independent experiments. *p<0.05; ns, no significant difference; one-way ANOVA followed by Bonferroni test. n=3-6. Error Bar indicates SEM
Neuronal death was observed and quantified by Hoechst staining. 300-500 neurons were counted for each group in three to 6 independent experiments. *p<0.05; ns, no significant difference; one-way ANOVA followed by Bonferroni test. n=3-6. Error Bar indicates SEM (FIG. 6).

[2] = tested on: stratum radiatum of field CA1 in acute rat hippocampal slices; assay: field EPSP recording, TBS-induced LTP in acute rat hippocampal slices; format: cell-based
Experimental: Results are expressed as percent of the average values over a 10 min baseline period and are means±S.E.M. of the indicated number of experiments.
FIG. 3A: Field recording of excitatory postsynaptic potentials (EPSPs) performed in stratum radiatum of field CA1 in acute rat hippocampal slices in the presence or absence of 200 nM of the calpain-2 selective inhibitor, Formula I, (mCalp-I in the drawing). Preincubation with mCalp-I enhances LTP. Results are expressed as percent of the average values over a 10 min baseline period and are means±S.E.M. of the indicated number of experiments.
Results are expressed as percent of the average values over the 10 min baseline period and are means±S.E.M. of the indicated number of experiments.
Generic calpain inhibitors block LTP when administered before LTP induction. Field recording of excitatory postsynaptic potentials (EPSPs; FIG. 2) was performed in stratum radiatum of field CA1 in acute rat hippocampal slices.
A calpain 2-selective inhibitor enhances LTP. […]

[3] = biological target: T1, calpain-2 (Homo sapiens, UniProt P17655); conditions: cited from earlier work
T1 sequence (P17655 1-700): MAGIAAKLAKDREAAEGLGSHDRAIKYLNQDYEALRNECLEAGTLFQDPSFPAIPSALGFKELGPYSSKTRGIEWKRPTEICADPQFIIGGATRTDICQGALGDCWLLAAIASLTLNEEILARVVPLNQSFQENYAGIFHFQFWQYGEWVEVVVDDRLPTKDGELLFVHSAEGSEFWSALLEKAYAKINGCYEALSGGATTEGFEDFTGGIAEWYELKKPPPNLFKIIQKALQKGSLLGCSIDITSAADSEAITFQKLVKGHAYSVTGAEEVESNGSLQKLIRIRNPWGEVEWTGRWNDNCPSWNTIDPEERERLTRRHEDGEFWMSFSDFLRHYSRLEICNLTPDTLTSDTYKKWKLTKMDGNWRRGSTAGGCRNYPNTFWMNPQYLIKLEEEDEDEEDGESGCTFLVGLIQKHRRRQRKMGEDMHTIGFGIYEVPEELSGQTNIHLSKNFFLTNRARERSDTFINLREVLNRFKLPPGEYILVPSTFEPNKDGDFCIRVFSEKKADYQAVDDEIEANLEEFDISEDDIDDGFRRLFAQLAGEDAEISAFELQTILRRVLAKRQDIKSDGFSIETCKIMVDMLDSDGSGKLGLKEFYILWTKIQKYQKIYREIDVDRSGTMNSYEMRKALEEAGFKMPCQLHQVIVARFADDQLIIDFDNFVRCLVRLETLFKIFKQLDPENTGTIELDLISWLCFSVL
T1 sequence (P04632 1-268 partner): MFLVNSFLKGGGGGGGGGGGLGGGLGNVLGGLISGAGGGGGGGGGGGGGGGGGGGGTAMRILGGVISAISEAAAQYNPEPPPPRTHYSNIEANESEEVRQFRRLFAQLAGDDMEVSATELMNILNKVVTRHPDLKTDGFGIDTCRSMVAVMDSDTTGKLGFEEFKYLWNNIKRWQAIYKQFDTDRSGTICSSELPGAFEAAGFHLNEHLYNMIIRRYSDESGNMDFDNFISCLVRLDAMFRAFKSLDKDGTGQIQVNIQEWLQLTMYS

[4] = tested on: Akt and ERK; assay: Akt and ERK phosphorylation in cultured cortical neurons, immunoblot; format: cell-based; conditions: for Akt and ERK phosphorylation (pAkt/Akt, pERK/ERK): peptide 1.5 μM, 30 min
Description: Pre-treatment with Calpain-2 C-terminal peptide had no effect on Akt and ERK levels. Columns represent means±S.E.M. n=3-6. *p<0.05. One-way ANOVA followed by Bonferroni test.

[5] = biological target: T2, calpain-1 (Homo sapiens, UniProt P07384); conditions: cited from earlier work
T2 sequence (P07384 1-714): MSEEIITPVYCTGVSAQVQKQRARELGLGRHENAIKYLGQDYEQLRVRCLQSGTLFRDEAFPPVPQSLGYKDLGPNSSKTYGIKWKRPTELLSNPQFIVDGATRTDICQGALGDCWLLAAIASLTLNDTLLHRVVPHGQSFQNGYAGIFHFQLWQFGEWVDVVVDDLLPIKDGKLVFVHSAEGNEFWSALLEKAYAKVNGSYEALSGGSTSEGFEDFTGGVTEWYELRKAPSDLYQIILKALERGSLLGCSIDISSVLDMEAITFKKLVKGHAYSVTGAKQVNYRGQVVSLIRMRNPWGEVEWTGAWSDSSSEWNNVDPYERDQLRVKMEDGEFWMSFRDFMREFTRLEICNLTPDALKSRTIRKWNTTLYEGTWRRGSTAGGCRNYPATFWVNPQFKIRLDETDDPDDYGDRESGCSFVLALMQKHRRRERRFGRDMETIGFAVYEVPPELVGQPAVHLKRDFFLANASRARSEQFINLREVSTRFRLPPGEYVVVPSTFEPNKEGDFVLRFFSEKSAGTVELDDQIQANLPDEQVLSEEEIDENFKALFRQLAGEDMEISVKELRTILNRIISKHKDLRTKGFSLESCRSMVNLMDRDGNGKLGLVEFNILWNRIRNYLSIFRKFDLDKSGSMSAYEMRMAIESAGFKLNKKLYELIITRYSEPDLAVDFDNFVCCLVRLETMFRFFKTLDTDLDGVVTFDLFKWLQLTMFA
T2 sequence (P04632 1-268 partner): T1 sequence (P04632 1-268 partner)

[6] = biological target: T2, calpain-1; assay: in vitro calpain-1 inhibition, succinic-Leu-Tyr-AMC substrate; format: biochemical; conditions: n = 3-5; for Ki: Example 13, read-out: Ki Calpain-1
Experimental: (§1) Formula 1, where chiral center 1 is the L-form and chiral center 2 is a racemic mixture of D- and L- in this example was introduced at various concentrations (from 1 nM to 10 μM) into an in vitro mix comprising succinic-Leu-Tyr-AMC and calpain-1 or calpain-2 (Sasaki et al, 1984), and the kinetics of the loss of fluorescence were determined for each of the calpains (Powers et al, 2000). […] Therefore, the assessment of selectivity described herein was different than the prior teaching.
(§2) Formula 1A, where chiral center 1 is the S-form and chiral center 2 is the S-form was separated from the S-R-form (Formula 1B) using methods that are well-known methods for separating diastereoisomers. Formula 1A, which is also referred to herein as compound 18A, in this example was introduced at various concentrations into an in vitro mix comprising succinic-Leu-Tyr-AMC and μ-calpain or m-calpain (Sasaki et al, 1984), and the kinetics of the loss of fluorescence were determined for each of the calpains.

[7] = biological target: T1, calpain-2; assay: in vitro calpain-2 inhibition, succinic-Leu-Tyr-AMC substrate; format: biochemical; conditions: for Ki: Example 13, read-out: Ki Calpain-2; for Ki / IC50: n = 3-4
Experimental: as §1, §2

[8] = tested on: cultured cortical neurons; assay: neuroprotection against starvation and oxidative stress (H2O2); format: cell-based; conditions: 1.5 μM
Description: Columns represent means±S.E.M. n=4. *p<0.05; **p<0.01; ***p<0.001. One-way ANOVA followed by Bonferroni test.

Compound: CC(C)C(NC(=O)OCc1ccccc1)C(=O)NC(C=O)Cc1ccccc1 (stereo not drawn) [Calpain inhibitor III, Z-Val-Phe-CHO, reference compound] (Cbz-Val-Phe-aldehyde; configuration not given here)
- blocked Bic- and 4-AP-induced neuroprotection against starvation [1]: blocked
- LTP after theta-burst stimulation ([2]; 10 μM added prior to TBS): blocks LTP; also recorded: prevented the formation of LTP
- short-term potentiation (increase in fEPSPs that follows TBS) ([2]; 10 μM added prior to TBS): did not block short-term potentiation
- Ki ([3]; stated for generic inhibitor, source not given, read-out: Ki for calpain-2): ~8 nM
- effect of calpain-1 peptide on Akt and ERK ([4]; pre-treatment 10 μM): blocks the effect of calpain-1 peptide on Akt and ERK

Compound: CC(C)C[C@H](NC(=O)OCc1ccccc1)C(=O)N[C@@H](CC(C)C)C(=O)N[C@@H](Cc1ccc(O)cc1)C(=O)CF [Calpain inhibitor IV, carboxybenzyl-Leu-Leu-Tyr-CH2-F] (Cbz-Leu-Leu-Tyr-CH2F)
- selectivity among calpains ([5]; Powers et al, 2002, effect appears to vary with cell-type): some selectivity for calpain-1

Compound: CC[C@H](NC(=O)[C@H](CC(C)C)NC(=O)OCc1ccccc1)C(=O)C(=O)NCc1cc(OC)cc(OC)c1 [Formula 1A]
- Ki [6]: 181 ± 73 nM
- IC50 [6]: 379 nM
- Ratio KiCalpain-1/KiCalpain-2 [7]: 23.2
- Ki [7]: 7.8 ± 2.5 nM
- difference in activity between the two diasteriomers, inhibition of calpain-2 ([7]; Formula 1A versus S-R-form): 2000 fold
- IC50 [7]: 193 nM

Compound: CC[C@@H](NC(=O)[C@H](CC(C)C)NC(=O)OCc1ccccc1)C(=O)C(=O)NCc1cc(OC)cc(OC)c1 [Formula 1B]
- Ki [6]: 514000 ± 151000 nM
- IC50 [6]: 569000 nM
- Ratio KiCalpain-1/KiCalpain-2 [7]: 34
- Ki [7]: 15600 ± 9200 nM
- IC50 [7]: 19400 nM

Compound: CCCNC(=O)C(=O)C(Cc1ccccc1)NC(=O)C(CC(C)C)NC(=O)OCc1ccccc1 (stereo not drawn) [Formula XII, z-Leu-Phe-CONH-nPr]
- Ki ([5]; Li et al, 1996, read-out: Ki for calpain-1 (μ-calpain), literature): 50 nM
- Ki ([5]; U.S. Pat. No. 6,235,929, column 14, Table I, read-out: Ki for calpain-1): 15000 nM
- Ki ([3]; Li et al, 1996, read-out: Ki for calpain-2 (m-calpain), literature): 350 nM

Compound: Calpain-1 C-terminal peptide: calpain-1 PDZ-binding domain specific peptide: VTFDLFKWLQLTMFA, or fragment or modification thereof
- LTP in rat hippocampal slices on un-scaffolding calpain-1 ([2]; calpain-1 PDZ-peptide): greater LTP
- neuroprotection against H2O2 insult [8]: neuroprotection against H2O2 insult
- neuroprotection against starvation [8]: neuroprotection against starvation
- Akt and ERK phosphorylation (pAkt/Akt, pERK/ERK) [4]: increased Akt and ERK phosphorylation

Compound: Calpain-2 C-terminal peptide: calpain-2 PDZ-binding domain specific peptide: TIQLDLISWLSFSVL, or fragment or modification thereof
- Akt and ERK phosphorylation (pAkt/Akt, pERK/ERK) [4]: no effect
